Each block holds one molecule with its values, some of them ahead of it.
What was measured:
Puccinia recondita = experiment: In vivo preventive test on Puccinia recondita (brown rust on wheat); conditions: 264 h, 500 ppm of active ingredient, preventive spray, evaluated 11 days after inoculation, read-out: efficacy
Protocol: (§1) Example A: In Vivo Preventive Test on Puccinia recondita (Brown Rust on Wheat) [table] The active ingredients were made soluble and homogenized in a mixture of dimethyl sulfoxide/acetone//Tween® 80 and then diluted in water to the desired concentration. Young plants of wheat were treated by spraying the active ingredient prepared as described above. Control plants were treated only with an aqueous solution of acetone/dimethyl sulfoxide/Tween® 80. After 24 hours, the plants were contaminated by spraying the leaves with an aqueous suspension of Puccinia recondita spores. The contaminated wheat plants were incubated for 24 hours at 20° C. and at 100% relative humidity and then for 10 days at 20° C. and at 70-80% relative humidity. The test was evaluated 11 days after the inoculation. 0% means an efficacy which corresponds to that of the control plants while an efficacy of 100% means that no disease was observed.

Sphaerotheca fuliginea = experiment: In vivo preventive test on Sphaerotheca fuliginea (powdery mildew on cucurbits); conditions: Podosphaera fuliginea, 360 h; 500 ppm of active ingredient; gherkin, preventive spray, evaluated 15 days after inoculation; read-out: efficacy
Protocol: Example C: In Vivo Preventive Test on Sphaerotheca fuliginea (Powdery Mildew on Cucurbits) [table] The active ingredients were made soluble and homogenized in a mixture of dimethyl sulfoxide/acetone//Tween® 80 and then diluted in water to the desired concentration. Young plants of gherkin were treated by spraying the active ingredient prepared as described above. Control plants were treated only with an aqueous solution of acetone/dimethyl sulfoxide/Tween® 80. After 24 hours, the plants were contaminated by spraying the leaves with an aqueous suspension of Sphaerotheca fuliginea spores. The contaminated gherkin plants were incubated for 72 hours at 18° C. and at 100% relative humidity and then for 12 days at 20° C. and at 70-80% relative humidity. The test was evaluated 15 days after the inoculation. 0% means an efficacy which corresponds to that of the control plants while an efficacy of 100% means that no disease was observed.

[1] = Log P by HPLC on reversed phase columns (EEC directive 79/831 Annex V.A8); assay type: physicochemical; conditions: method [a]: LC-UV, acidic range, 0.1% formic acid in water and acetonitrile; for chromatographic logP: reversed phase HPLC columns
Protocol: Log P values: Measurement of Log P values was performed according to EEC directive 79/831 Annex V.A8 by HPLC (High Performance Liquid Chromatography) on reversed phase columns with the following methods: • ^[a] Log P value is determined by measurement of LC-UV, in an acidic range, with 0.1% formic acid in water and acetonitrile as eluent (linear gradient from 10% acetonitrile to 95% acetonitrile). • ^[b] Log P value is determined by measurement of LC-UV, in a neutral range, with 0.001 molar ammonium acetate solution in water and acetonitrile as eluent (linear gradient from 10% acetonitrile to 95% acetonitrile). • ^[c] Log P value is determined by measurement of LC-UV, in an acidic range, with 0.1% phosphoric acid and acetonitrile as eluent (linear gradient from 10% acetonitrile to 95% acetonitrile). If more than one Log P value is available within the same method, all the values are given and separated by “+”. Calibration was done with straight-chain alkan2-ones (with 3 to 16 carbon atoms) with known Log P values (measurement of Log P values using retention times with linear interpolation between successive alkanones). Lambda-max-values were determined using UV-spectra from 200 nm to 400 nm and the peak values of the chromatographic signals.

Septoria tritici = experiment: In vivo preventive test on Septoria tritici (leaf spot on wheat); conditions: Zymoseptoria tritici, 576 h, 500 ppm of active ingredient, preventive spray, evaluated 24 days after inoculation, read-out: efficacy
Protocol: Example B: In Vivo Preventive Test on Septoria tritici (Leaf Spot on Wheat) [table] The active ingredients were made soluble and homogenized in a mixture of dimethyl sulfoxide/acetone//Tween® 80 and then diluted in water to the desired concentration. Young plants of wheat were treated by spraying the active ingredient prepared as described above. Control plants were treated only with an aqueous solution of acetone/dimethyl sulfoxide/Tween® 80. After 24 hours, the plants were contaminated by spraying the leaves with an aqueous suspension of Septoria tritici spores. The contaminated wheat plants were incubated for 72 hours at 18° C. and at 100% relative humidity and then for 21 days at 20° C. and at 90% relative humidity. The test was evaluated 24 days after the inoculation. 0% means an efficacy which corresponds to that of the control plants while an efficacy of 100% means that no disease was observed.

[2] = system: Blumeria graminis fsp. hordei; experiment: In vivo preventive Blumeria test (barley); conditions: 168 h, 500 ppm of active ingredient, preventive spray, evaluated 7 days after inoculation, read-out: efficacy
Protocol: Example E: In Vivo Preventive Blumeria Test (Barlev) [table] To produce a suitable preparation of active compound, 1 part by weight of active compound or active compound combination was mixed with the stated amounts of solvent and emulsifier, and the concentrate was diluted with water to the desired concentration. To test for preventive activity, young plants were sprayed with the preparation of active compound or active compound combination at the stated rate of application. After the spray coating had been dried, the plants were dusted with spores of Blumeria graminis fsp. hordei. The plants were placed in the greenhouse at a temperature of approximately 18° C. and a relative atmospheric humidity of approximately 80% to promote the development of mildew pustules. The test was evaluated 7 days after the inoculation. 0% means an efficacy which corresponds to that of the untreated control, while an efficacy of 100% means that no disease is observed.

Uromyces appendiculatus = experiment: In vivo preventive test on Uromyces appendiculatus (bean rust); conditions: 264 h, 500 ppm of active ingredient, preventive spray, evaluated 11 days after inoculation, read-out: efficacy
Protocol: as §1, with “D:” for “A:”, “Uromyces appendiculatus (Bean Rust)” for “Puccinia recondita (Brown Rust on Wheat)”, “bean” for “wheat”, “Uromyces appendiculatus” for “Puccinia recondita”

chromatographic logP ([1]; compounds of formula (VII)): 2.21
Structure (SMILES): O=C(Cn1cncn1)c1cnc(Oc2ccc(Cl)nc2)cc1C(F)(F)F [VII-06, 1-[6-[(6-chloro-3-pyridyl)oxy]-4-(trifluoromethyl)-3-pyridyl]-2-(1,2,4-triazol-1-yl)ethanone]
pest or weed control at 500 ppm (Sphaerotheca fuliginea): 90 to 100% | pest or weed control at 500 ppm (Septoria tritici): 80 to 89%

LogP ([1]; compounds of formula (VII)): 2.23^[a]
Structure (SMILES): O=C(Cn1cncn1)c1ccc(Oc2ccc(Cl)nc2)nc1C(F)(F)F [VII-05]

chromatographic logP ([1]; compounds of formula (VII)): 2.23
Structure (SMILES): O=C(Cn1cncn1)c1ccc(Oc2ccc(Br)nc2)nc1C(F)(F)F [VII-01, 1-[6-[(6-bromo-3-pyridyl)oxy]-2-(trifluoromethyl)-3-pyridyl]-2-(1,2,4-triazol-1-yl)ethanone]
pest or weed control at 500 ppm (Puccinia recondita): 80 to 89% | pest or weed control at 500 ppm (Sphaerotheca fuliginea): 90 to 100% | pest or weed control at 500 ppm (Septoria tritici): 90 to 100% | pest or weed control at 500 ppm (Uromyces appendiculatus): 90 to 100%

LogP ([1]; compounds of formula (VII)): 2.66^[a]
Structure (SMILES): O=C(Cn1cncn1)c1cnc(Oc2ccc(C(F)(F)F)nc2)cc1C(F)(F)F [VII-04]

LogP ([1]; compounds of formula (VII)): 1.99^[a]
Structure (SMILES): O=C(Cn1cncn1)c1ccc(Oc2ccc(Cl)nc2)nc1Cl [VII-03]

chromatographic logP ([1]; compounds of formula (VII)): 2.43
Structure (SMILES): O=C(Cn1cncn1)c1ccc(Oc2ccc(C(F)(F)F)nc2)nc1C(F)(F)F [VII-02, 2-(1,2,4-triazol-1-yl)-1-[2-(trifluoromethyl)-6-[[6-(trifluoromethyl)-3-pyridyl]oxy]-3-pyridyl]ethanone]
pest or weed control at 500 ppm (Puccinia recondita): 80 to 89% | pest or weed control at 500 ppm (Sphaerotheca fuliginea): 90 to 100% | pest or weed control at 500 ppm (Septoria tritici): 90 to 100% | pest or weed control at 500 ppm (Uromyces appendiculatus): 90 to 100%

LogP ([1]; compounds of formula (VII)): 2.94^[a]
Structure (SMILES): O=C(Cn1cncn1)c1cnc(Oc2ccc(Br)nc2)cc1C(F)(F)F [VII-07]

Second part, the molecule before the results:

Structure (SMILES): OC(Cn1cncn1)c1cnc(Oc2ccc(Cl)nc2)cc1C(F)(F)F (stereo not drawn) [I-14, 1-[6-[(6-chloro-3-pyridyl)oxy]-4-(trifluoromethyl)-3-pyridyl]-2-(1,24-triazol-1-yl)ethanol]
pest or weed control at 500 ppm (Puccinia recondita): 90 to 100% | pest or weed control at 500 ppm (Sphaerotheca fuliginea): 90 to 100% | chromatographic logP ([1]; compounds of formula (I)): 1.99 | pest or weed control at 500 ppm (Septoria tritici): 90 to 100% | pest or weed control at 500 ppm [2]: 90 to 100% | pest or weed control at 500 ppm (Uromyces appendiculatus): 90 to 100%

Structure (SMILES): CC(=O)c1cnc(Oc2ccc(Cl)nc2)cc1C(F)(F)F [V-06, 1-[6-[(6-chloro-3-pyridyl)oxy]-4-(trifluoromethyl)-3-pyridyl]ethanone]
chromatographic logP ([1]; compounds of formula (V)): 3

Structure (SMILES): OC(Cn1cncn1)c1ccc(Oc2ccc(Cl)nc2)nc1Cl (stereo not drawn) [I-11]
LogP ([1]; compounds of formula (I)): 1.79^[a]

Structure (SMILES): CC(=O)c1cnc(Oc2ccc(C(F)(F)F)nc2)cc1C(F)(F)F [V-04]
LogP ([1]; compounds of formula (V)): 3.44^[a]

Structure (SMILES): CC(O)(Cn1cncn1)c1ccc(Oc2ccc(Cl)nc2)nc1Cl (stereo not drawn) [I-03]
LogP ([1]; compounds of formula (I)): 2.04^[a]

Structure (SMILES): CC(=O)c1ccc(Oc2ccc(Cl)nc2)nc1C(F)(F)F [V-05]
LogP ([1]; compounds of formula (V)): 3.00^[a]

Structure (SMILES): CC(=O)c1ccc(Oc2ccc(C(F)(F)F)nc2)nc1C(F)(F)F [V-02, 1-[2-(trifluoromethyl)-6-[[6-(trifluoromethyl)-3-pyridyl]oxy]-3-pyridyl]ethanone]
chromatographic logP ([1]; compounds of formula (V)): 3.26

Structure (SMILES): O=C(CCl)c1ccc(Oc2ccc(Br)nc2)nc1C(F)(F)F [VI-01, 1-[6-[(6-bromo-3-pyridyl)oxy]-2-(trifluoromethyl)-3-pyridyl]-2-chloro-ethanone]
chromatographic logP ([1]; compounds of formula (VI)): 3.44

Structure (SMILES): CC(=O)c1ccc(Oc2ccc(Br)nc2)nc1C(F)(F)F [V-01, 1-[6-[(6-bromo-3-pyridyl)oxy]-2-(trifluoromethyl)-3-pyridyl]ethanone]
chromatographic logP ([1]; compounds of formula (V)): 3.12

Structure (SMILES): O=C(CCl)c1ccc(Oc2ccc(Cl)nc2)nc1C(F)(F)F [VI-05]
LogP ([1]; compounds of formula (VI)): 3.27^[a]

Structure (SMILES): O=C(CCl)c1ccc(Oc2ccc(C(F)(F)F)nc2)nc1C(F)(F)F [VI-02, 2-chloro-1-[2-(trifluoromethyl)-6-[[6-(trifluoromethyl)-3-pyridyl]oxy]-3-pyridyl]ethanone]
chromatographic logP ([1]; compounds of formula (VI)): 3.6

Structure (SMILES): CC(=O)c1ccc(Oc2ccc(F)nc2)nc1Cl [V-08]
LogP ([1]; compounds of formula (V)): 2.39^[a]

Structure (SMILES): CC(=O)c1cnc(Oc2ccc(Cl)nc2)cc1Cl [V-10]
LogP ([1]; compounds of formula (V)): 2.59^[a]

Structure (SMILES): CC(=O)c1ccc(Oc2ccc(C)nc2)nc1Cl [V-09]
LogP ([1]; compounds of formula (V)): 1.42^[a]

Structure (SMILES): CC(=O)c1ccc(Oc2ccc(Cl)nc2)nc1Cl [V-03]
LogP ([1]; compounds of formula (V)): 2.66^[a]

Structure (SMILES): OC(Cn1cncn1)c1cnc(Oc2ccc(C(F)(F)F)nc2)cc1C(F)(F)F (stereo not drawn) [I-08]
LogP ([1]; compounds of formula (I)): 2.35^[a]

Structure (SMILES): O=C(CCl)c1cnc(Oc2ccc(C(F)(F)F)nc2)cc1C(F)(F)F [VI-04]
LogP ([1]; compounds of formula (VI)): 3.64^[a]

Structure (SMILES): O=C(CCl)c1ccc(Oc2ccc(Cl)nc2)nc1Cl [VI-03]
LogP ([1]; compounds of formula (VI)): 3.00^[a]

Structure (SMILES): OC(Cn1cncn1)c1ccc(Oc2ccc(Br)nc2)nc1C(F)(F)F (stereo not drawn) [I-12, 1-[6-[(6-bromo-3-pyridyl)oxy]-2-(trifluoromethyl)-3-pyridyl]-2-(1,2,4-triazol-1-yl)ethanol]
pest or weed control at 500 ppm (Puccinia recondita): 80 to 89% | pest or weed control at 500 ppm (Sphaerotheca fuliginea): 90 to 100% | chromatographic logP ([1]; compounds of formula (I)): 2.03 | pest or weed control at 500 ppm (Septoria tritici): 90 to 100% | pest or weed control at 500 ppm [2]: 90 to 100% | pest or weed control at 500 ppm (Uromyces appendiculatus): 90 to 100%

Structure (SMILES): OC(Cn1cncn1)c1ccc(Oc2ccc(Cl)nc2)nc1C(F)(F)F (stereo not drawn) [I-10]
LogP ([1]; compounds of formula (I)): 2.07^[a]

Structure (SMILES): CC(=O)c1cnc(Oc2ccc(Br)nc2)cc1C(F)(F)F [V-07]
LogP ([1]; compounds of formula (V)): 3.17^[a]
